For this test, the target named is T1, human histamine H4 receptor (Homo sapiens, UniProt Q9H3N8).
T1 construct: expressed in transfected cells; host or cells: SK-N-MC cells or COS7 cells, transiently transfected with pH4R; cell membranes
The experiment in a line: Binding Assay on Recombinant Human Histamine H4 Receptor (3H-histamine competition, membranes of transfected SK-N-MC or COS7 cells). The conditions noted are these: competition with 3H-histamine (5 nM ligand, KD 5 nM), Cheng-Prusoff; mean of results; > = solubility limit or highest concentration tested. The procedure:
Binding Assay on Recombinant Human Histamine H4 Receptor
SK-N-MC cells or COS7 cells were transiently transfected with pH4R and grown in 150 cm^2 tissue culture dishes. Cells were washed with saline solution, scraped with a cell scraper and collected by centrifugation (1000 rpm, 5 min). Cell membranes were prepared by homogenization of the cell pellet in 20 mM Tris-HCl with a polytron tissue homogenizer for 10 sec at high speed. Homogenate was centrifuged at 1000 rpm for 5 min at 4° C. The supernatant was then collected and centrifuged at 20,000×g for 25 min at 4° C. The final pellet was resuspended in 50 mM Tris-HCl. […] Incubation occurred at room temperature for 45 min. Membranes were harvested by rapid filtration over Whatman GF/C filters and washed 4 times with ice-cold 50 mM Tris HCl. Filters were then dried, mixed with scintillant and counted for radioactivity. SK-N-MC or COS7 cells expressing human histamine H4 receptor were used to measure the affinity of binding of other compounds and their ability to displace ^3H-ligand binding by incubating the above-described reaction in the presence of various concentrations of inhibitor or compound to be tested.

Structures can show the parent of a compound that is named as a salt.

A word on the Ki: it is the equilibrium dissociation constant of an inhibitor or competing ligand from its target.

T1 sequence (Q9H3N8 whole entry): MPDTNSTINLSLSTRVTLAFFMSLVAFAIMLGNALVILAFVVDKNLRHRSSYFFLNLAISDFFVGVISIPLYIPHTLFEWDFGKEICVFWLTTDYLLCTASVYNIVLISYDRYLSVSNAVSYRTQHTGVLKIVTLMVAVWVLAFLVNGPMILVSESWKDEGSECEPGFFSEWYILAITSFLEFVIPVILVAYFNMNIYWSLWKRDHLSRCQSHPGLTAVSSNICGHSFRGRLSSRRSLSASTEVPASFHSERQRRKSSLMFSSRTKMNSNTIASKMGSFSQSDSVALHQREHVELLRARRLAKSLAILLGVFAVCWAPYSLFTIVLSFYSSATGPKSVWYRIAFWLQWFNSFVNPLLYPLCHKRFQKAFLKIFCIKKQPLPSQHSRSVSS

For the compound `CN(C)C1CCN(C(=O)c2cc3cc(Cl)ccc3[nH]2)C1` (centres unmarked) [Example 25, (5-Chloro-1H-indol-2-yl)-(3-dimethylamino-pyrrolidin-1-yl)-methanone], the Ki was determined as 1160 nM.
As for `O=C(c1cc2ccccc2[nH]1)N1C[C@@H]2C[C@H]1CN2` [Example 1, (S,S)-(2,5-Diaza-bicyclo[2.2.1]hept-2-yl)-(1H-indol-2-yl)-methanone hydrochloride salt], the Ki was determined as 1110 nM.
With `O=C(c1cc2cc(Cl)ccc2[nH]1)N1C[C@H]2CCCN[C@H]2C1` (relative stereo) [Example 10, cis-(5-Chloro-1H-indol-2-yl)-(octahydro-pyrrolo[3,4-b]pyridin-6-yl)-methanone], the Ki stood at 8 nM.
As for `CN[C@@H]1CCN(C(=O)c2cc3cc(Cl)ccc3[nH]2)C1` [Example 8, (R)-(5-Chloro-1H-indol-2-yl)-(3-methylamino-pyrrolidin-1-yl)-methanone], the Ki was determined as 53 nM.
In the case of `O=C(c1cc2cc(Cl)ccc2[nH]1)N1C[C@@H]2CCCN[C@@H]2C1` [Example 12A, (S,S)-(5-Chloro-1H-indol-2-yl)-(octahydro-pyrrolo[3,4-b]pyridin-6-yl)-methanone] it was 180 nM; in that of `O=C(c1cc2cc(Cl)ccc2[nH]1)N1C[C@H]2CCCN[C@H]2C1` [Example 11, (R,R)-(5-Chloro-1H-indol-2-yl)-(octahydro-pyrrolo[3,4-b]pyridin-6-yl)-methanone hydrochloride salt], 27 nM; in that of `CNC1CCN(C(=O)c2cc3ccccc3[nH]2)C1` (centres unmarked) [Example 3, (1H-Indol-2-yl)-(3-methylamino-pyrrolidin-1-yl)-methanone trifluoroacetic acid salt], 430 nM.
As for `CN[C@H]1CCN(C(=O)c2cc3cc(Cl)ccc3[nH]2)C1` [Example 9, (S)-(5-Chloro-1H-indol-2-yl)-(3-methylamino-pyrrolidin-1-yl)-methanone], the Ki was 540 nM.
In the case of `CN[C@H]1CCN(C(=O)c2cc3c(F)cc(F)cc3[nH]2)C1` [Example 22, (S)-(4,6-Difluoro-1H-indol-2-yl)-(3-methylamino-pyrrolidin-1-yl)-methanone], the Ki is > 5000 nM.
`CN[C@@H]1CCN(C(=O)c2cc3cccc(C)c3[nH]2)C1` [Example 19, (R)-(3-Methylamino-pyrrolidin-1-yl)-(7-methyl-1H-indol-2-yl)-methanone]: the Ki is 150 nM.
As to `O=C(c1cc2cc(Cl)ccc2[nH]1)N1C[C@@H]2CCCN[C@@H]2C1` [Example 12, (S,S)-(5-Chloro-1H-indol-2-yl)-(octahydro-pyrrolo[3,4-b]pyridin-6-yl)-methanone hydrochloride salt], the Ki is > 10000 nM.
Turning to `CN1C[C@@H]2C[C@H]1CN2C(=O)c1cc2ccccc2[nH]1` [Example 2, (S,S)-(1H-Indol-2-yl)-(5-methyl-2,5-diaza-bicyclo[2.2.1]hept-2-yl)-methanone], the Ki was determined as 3200 nM.
As to `O=C(c1cc2cccc([N+](=O)[O-])c2[nH]1)N1C[C@H]2CCCN[C@H]2C1` (relative stereo) [Example 14, cis-(7-Nitro-1H-indol-2-yl)-(octahydro-pyrrolo[3,4-b]pyridin-6-yl)-methanone hydrochloride salt], the Ki was > 10000 nM.
`O=C(c1cc2c(F)cc(F)cc2[nH]1)N1C[C@H]2CCCN[C@H]2C1` (relative stereo) [Example 15, cis-(4,6-Difluoro-1H-indol-2-yl)-(octahydro-pyrrolo[3,4-b]pyridin-6-yl)-methanone hydrochloride salt]: the Ki turned out to be 220 nM.
As to `CN[C@H]1CCN(C(=O)c2cc3cccc(C)c3[nH]2)C1` [Example 18, (S)-(3-Methylamino-pyrrolidin-1-yl)-(7-methyl-1H-indol-2-yl)-methanone], the inhibition constant Ki is > 10000 nM.
In the case of `CNC1CCN(C(=O)c2nc3ccccc3[nH]2)C1` (centres unmarked) [Example 30, (1H-Benzoimidazol-2-yl)-(3-methylamino-pyrrolidin-1-yl)-methanone hydrochloride salt] it was 2000 nM; in that of `CN[C@H]1CCN(C(=O)c2cc3cc(C)ccc3[nH]2)C1` [Example 20, (S)-(3-Methylamino-pyrrolidin-1-yl)-(5-methyl-1H-indol-2-yl)-methanone], > 10000 nM.
`CN[C@@H]1CCN(C(=O)c2cc3c(F)cc(F)cc3[nH]2)C1` [Example 23, (R)-(4,6-Difluoro-1H-indol-2-yl)-(3-methylamino-pyrrolidin-1-yl)-methanone]: the Ki was found to be 680 nM.
Take `O=C(c1nc2cc(Cl)ccc2[nH]1)N1C[C@H]2CCCN[C@H]2C1` (relative stereo) [Example 7, cis-(5-Chloro-1H-benzoimidazol-2-yl)-(octahydro-pyrrolo[3,4-b]pyridin-6-yl)-methanone]: the Ki was 20 nM.
In the case of `CN1CCC[C@@H]2CN(C(=O)c3cc4ccccc4[nH]3)C[C@@H]21` (relative stereo) [Example 27, cis-(1H-Indol-2-yl)-(1-methyl-octahydro-pyrrolo[3,4-b]pyridin-6-yl)-methanone], the Ki came out at 560 nM.
As for `CN1CCC[C@@H]2CN(C(=O)c3cc4cc(Cl)ccc4[nH]3)C[C@@H]21` (relative stereo) [Example 28, cis-(5-Chloro-1H-indol-2-yl)-(1-methyl-octahydro-pyrrolo[3,4-b]pyridin-6-yl)-methanone], the Ki came to 240 nM.
As for `O=C(c1cc2ccccc2[nH]1)N1C[C@@H]2CCCN[C@@H]2C1` [Example 6, (S,S)-(1H-Indol-2-yl)-(octahydro-pyrrolo[3,4-b]pyridin-6-yl)-methanone trifluoroacetic acid salt], the Ki was > 10000 nM.
Consider `CN(C)C1CCN(C(=O)c2nc3ccccc3[nH]2)C1` (centres unmarked) [Example 31, (1H-Benzoimidazol-2-yl)-(3-dimethylamino-pyrrolidin-1-yl)-methanone], for which the Ki worked out at 8200 nM.
For `CN[C@@H]1CCN(C(=O)c2cc3cc(F)ccc3[nH]2)C1` [Example 17, (R)-(5-Fluoro-1H-indol-2-yl)-(3-methylamino-pyrrolidin-1-yl)-methanone], the Ki is 38 nM.
On to `CN(C)C1CCN(C(=O)c2cc3ccccc3[nH]2)C1` (centres unmarked) [Example 26, (3-Dimethylamino-pyrrolidin-1-yl)-(1H-indol-2-yl)-methanone], for which the Ki came to 9000 nM.
Take `O=C(c1cc2cc(F)ccc2[nH]1)N1C[C@H]2CCCN[C@H]2C1` (relative stereo) [Example 13, cis-(5-Fluoro-1H-indol-2-yl)-(octahydro-pyrrolo[3,4-b]pyridin-6-yl)-methanone hydrochloride salt]: the inhibitory constant (Ki) amounted to 28 nM.
In the case of `O=C(c1cc2ccccc2[nH]1)N1C[C@H]2CCCN[C@H]2C1` (relative stereo) [Example 5, cis-(1H-Indol-2-yl)-(octahydro-pyrrolo[3,4-b]pyridin-6-yl)-methanone trifluoroacetic acid salt], the Ki came out at 40 nM.
With `CN[C@@H]1CCN(C(=O)c2cc3ccccc3[nH]2)C1` [Example 4, (R)-(1H-Indol-2-yl)-(3-methylamino-pyrrolidin-1-yl)-methanone hydrochloride salt], the Ki was 160 nM.
For `NC1CCN(C(=O)c2cc3cc(Cl)ccc3[nH]2)C1` (centres unmarked) [Example 24, (3-Amino-pyrrolidin-1-yl)-(5-chloro-1H-indol-2-yl)-methanone hydrochloride salt], the inhibition constant Ki was determined as 190 nM.
In the case of `CN[C@@H]1CCN(C(=O)c2cc3cc(C)ccc3[nH]2)C1` [Example 21, (R)-(3-Methylamino-pyrrolidin-1-yl)-(5-methyl-1H-indol-2-yl)-methanone] it was 280 nM; in that of `Cc1ccc2[nH]c(C(=O)N3C[C@H]4CCCN[C@H]4C3)cc2c1` (relative stereo) [Example 29, cis-(5-Methyl-1H-indol-2-yl)-(octahydro-pyrrolo[3,4-b]pyridin-6-yl)-methanone hydrochloride salt], 41 nM; in that of `CN[C@H]1CCN(C(=O)c2cc3cc(F)ccc3[nH]2)C1` [Example 16, (S)-(5-Fluoro-1H-indol-2-yl)-(3-methylamino-pyrrolidin-1-yl)-methanone], 680 nM.

Values taken from patent US7544698B2, “Indoles and benzoimidazoles as modulators of the histamine H4 receptor” (Janssen Pharmaceutica, N.V., priority 2006, dated 2009).
